# From publication PMC3716995, “A phase I study of ridaforolimus in adult Chinese patients with advanced solid tumors” (Journal of Hematology & Oncology, 2013)
# Where “and” joins values, the source holds several entries; their conditions need not be identical. Identical values can stand only once. Like-named read-outs stand apart in the source and are kept apart here. Marks after values point to notes of the source that are not given here.
# Assays:
# advanced sarcoma = test system: advanced sarcoma; design: method as in earlier work; conditions: maintenance therapy, cited from earlier work
# [1] = design: method as in PMID 18202410, PMID 19228743, PMID 22143378; conditions: Caucasians and Japanese patients, cited from earlier work
# [2] = Whole blood pharmacokinetics of oral ridaforolimus 40 mg in Chinese patients (HPLC-MS/MS, WinNonlin); assay type: in vivo; conditions: for AUC(0-t): read-out: AUC0-24; for concentration at 24 h: read-out: C24hr
# Procedure: (§1) The eligible patients were given the following treatment regimen: a single oral dose of 40 mg of ridaforolimus on Day 1; and then, the treatment started from Day 8 with an oral dose of 40 mg of ridaforolimus for five consecutive days (on Day 8 through Day 12) followed by two day's off (Day 13 and 14). The treatment repeated every 7 days. Four treatment weeks was considered one treatment cycle. Sample blood for PK analysis were collected at the following times: on Day 1 prior to drug administration and for 168 h post-dose (at 1, 2, 3, 4, 6, 8, 24, 72, 96, and 168 h post-treatment); on Day 8 and Day 15 prior to drug administration; on Day 19 prior to drug administration and for 24 h post-dose (at 1, 2, 3, 4, 6, 8 and 24 h post-treatment). We monitored patients’ vital signs and conducted laboratory and physical examinations on trial Day 1, 8 and 19.
# Ridaforolimus concentration in both whole blood and plasma was analyzed using high-performance liquid chromatography with tandem mass spectrometric detection set at a lower limit of quantification of 0.2 ng/mL (Wuxi AppTec, Shanghai, China). Pharmacokinetic analyses were performed with WinNonlin, version 5.2.1 (Pharsight Corp., St. Louis, MO, USA). AUC0-∞, AUC0-24hr, C24hr, and Cmax were determined for each patient on Day 1 and on Day 19, if applicable, and the geometric means as well as the 95% CI were calculated. The accumulation of ridaforolimus was assessed for Cmax and for AUC0-24hr (geometric mean ratio Day 19 / Day 1 and 90% CI).
# [3] = design: method as in PMID 22143378; conditions: Japanese patients, cited from earlier work
# [4] = design: method as in internal PK data; conditions: Caucasian patients, ref internal PK data, cited from earlier work
# [5] = test system: treatment-refractory advanced or relapsed solid tumors; assay: Tumor response (RECIST 1.1) in Chinese patients; assay type: in vivo
# Procedure: (§2) The patients continued to receive 40 mg of ridaforolimus for five consecutive days followed by two day's off until disease progression or intolerability. Averse events were monitored every four weeks and AEs were graded according to the Common Terminology Criteria for Adverse Events version 4.0. We also monitored patients’ vital signs and conducted laboratory and physical examinations every four weeks. Radiographic studies for disease assessment were conducted at baseline and again after every two treatment cycles (thus, every eight weeks). Tumor responses were assessed according to the Response Evaluation Criteria for Solid Tumors 1.1 guidelines. We conducted a full safety assessment in all patients four weeks after the administration of the last treatment dose.
# [6] = Safety and tolerability (adverse events, CTCAE v4.0) of oral ridaforolimus 40 mg in Chinese patients; assay type: in vivo
# Procedure: as §1, §2
# [7] = Day 1, single oral dose 40 mg, whole blood, median
# [8] = human, whole blood, po, 40 mg, Day 1, single oral dose 40 mg, whole blood, geometric mean
# [9] = single dose, geometric mean (95% CI)
# [10] = Grade 3 non-serious adverse event
# [11] = Grade 4 non-serious adverse event
# [12] = N = 15, not considered drug-related by the investigator
# [13] = non-serious adverse event, all grades, N = 15
smiles,measurement,setting,value
"CO[C@H]1C[C@@H]2CC[C@@H](C)[C@@](O)(O2)C(=O)C(=O)N2CCCC[C@H]2C(=O)O[C@H]([C@H](C)C[C@@H]2CC[C@@H](OP(C)(C)=O)[C@H](OC)C2)CC(=O)[C@H](C)/C=C(\C)[C@@H](O)[C@@H](OC)C(=O)[C@H](C)C[C@H](C)/C=C/C=C/C=C/1C [ridaforolimus, Ridaforolimus]",Median PFS,"advanced sarcoma; vs 14.6 weeks for placebo, P = 0.0001",17.7 weeks
same,Median overall survival at data cut-off (386 deaths),"advanced sarcoma; vs 83.4 weeks for placebo, P = 0.23",93.3 weeks
same,Tolerability,[1]; oral 40mg per day for five consecutive days followed by two day's off,well tolerated
same,Most important dose limiting toxicity,[1]; oral ridaforolimus,stomatitis
same,Linearity of blood PKs,[2]; AUC0-24hr at steady state lower than AUC0-∞ after single dose,non-linear
same,Apparent t1/2 (elimination half-life),"[2]; Day 1, single oral dose 40 mg, whole blood, harmonic mean",52.9 h
same,Tlag (absorption lag time),[2]; [7],2 h and 2.00 h
same,Tmax,[2]; [7],4.03 h
same,Absorption after oral administration,"[2]; human, in vivo, po",slowly absorbed
same,AUC(0-t),[2]; [8],1850 ng·h/mL
same,concentration at 24 h,[2]; [8],34.8 ng/mL
same,Cmax,"[2]; human, whole blood, po, 40 mg, Day 1, single oral dose 40 mg, whole blood, geometric mean, read-out: Cmax",210 ng/mL
same,half-life,"[2]; human, whole blood, po, 40 mg, Day 1, single oral dose 40 mg, whole blood, harmonic mean, read-out: Apparent t1/2 (elimination half-life) (converted)",53 h
same,Tmax,"[2]; human, whole blood, po, 40 mg, Day 1, single oral dose 40 mg, whole blood, median, read-out: Tmax",4 h
same,Cmax,"[2]; human, whole blood, po, 40 mg, Day 1, single oral dose 40 mg, read-out: Cmax, median value",192 ng/mL
same,AUC(0-t),"[2]; human, whole blood, po, 40 mg, Day 19, multiple once daily oral 40 mg (steady state), whole blood, geometric mean",2010 ng·h/mL
same,concentration at 24 h,"[2]; human, whole blood, po, 40 mg, Day 19, multiple once daily oral 40 mg, whole blood, geometric mean",49.7 ng/mL
same,Cmax,"[2]; human, whole blood, po, 40 mg, Day 19, multiple once daily oral 40 mg, whole blood, geometric mean, read-out: Cmax",167 ng/mL
same,Tmax,"[2]; human, whole blood, po, 40 mg, Day 19, multiple once daily oral 40 mg, whole blood, median, read-out: Tmax",4 h
same,Cmax,"[2]; human, whole blood, po, 40 mg, Day 19, multiple once daily oral 40 mg, read-out: Cmax, median value",203 ng/mL
same,AUC(0-inf),"[2]; human, Day 1, single oral dose 40 mg, whole blood, geometric mean",3650 ng·h/mL
same,AUC0-24,[3]; multiple dose,"2,120 (1,320, 3,410) ng.hr/ml"
same,Cmax,[3]; multiple dose,"188 (116, 306) ng/ml"
same,Tmax,[3]; multiple dose,"4.04 (4.00, 8.15) hr"
same,AUC0-24,[3]; [9],"1,470 (914, 2,360) ng.hr/ml"
same,Cmax,[3]; [9],"187 (115, 304) ng/ml"
same,t1/2,"[3]; single dose, harmonic mean (jack-knife SD)","55.8 (50.95, 60.65)^c hr"
same,Tmax,"[3]; single dose, median (min, max)","4.00 (4.00, 8.00) hr"
same,Accumulation ratio AUC0-24,[3]; geometric mean ratio (90% CI),"1.44 (1.05, 1.99)"
same,Accumulation ratio Cmax,[3]; geometric mean ratio (90% CI),"1.01 (0.674, 1.50)"
same,AUC0-24,[4]; multiple dose,"1882(1630, 2180) ng.hr/ml"
same,Cmax,[4]; multiple dose,"160(136, 188) ng/ml"
same,AUC0-24,[4]; [9],"992(801, 1230) ng.hr/ml"
same,Cmax,[4]; [9],"112(84.6, 148) ng/ml"
same,t1/2,"[4]; single dose, harmonic mean (pseudo SD)",42.0(17.7)^d hr
same,Tmax,"[4]; single dose, median (min, max)","2.79(1.42, 9.78) hr"
same,Accumulation ratio AUC0-24,[4]; geometric mean ratio (90% CI),"1.90(1.63, 2.21)"
same,Accumulation ratio Cmax,[4]; geometric mean ratio (90% CI),"1.43(1.22, 1.68)"
same,Patients who discontinued treatment because of progressive disease,[5]; N = 15,Eight
same,Partial or complete responses,[5]; RECIST 1.1,absence of partial or complete responses
same,"Anaemia Grade 3, number of patients",[6]; [10],2/15
same,"Anaemia Grade 3, percentage of patients",[6]; [10],13.3%
same,"Constipation Grade 3, number of patients",[6]; [10],1/15
same,"Constipation Grade 3, percentage of patients",[6]; [10],6.7%
same,"Fatigue Grade 3, number of patients",[6]; [10],2/15
same,"Fatigue Grade 3, percentage of patients",[6]; [10],13.3%
same,"Gamma-glutamyltransferase increase Grade 3, number of patients",[6]; [10],1/15
same,"Gamma-glutamyltransferase increase Grade 3, percentage of patients",[6]; [10],6.7%
same,"Platelet count decrease Grade 3, number of patients",[6]; [10],1/15
same,"Platelet count decrease Grade 3, percentage of patients",[6]; [10],6.7%
same,"Proteinuria Grade 3, number of patients",[6]; [10],1/15
same,"Proteinuria Grade 3, percentage of patients",[6]; [10],6.7%
same,"Stomatitis Grade 3, number of patients",[6]; [10],2/15
same,"Stomatitis Grade 3, percentage of patients",[6]; [10],13.3%
same,"Anaemia Grade 4, number of patients",[6]; [11],1/15
same,"Anaemia Grade 4, percentage of patients",[6]; [11],6.7%
same,"Platelet count decrease Grade 4, number of patients",[6]; [11],1/15
same,"Platelet count decrease Grade 4, percentage of patients",[6]; [11],6.7%
same,Patients who discontinued as a result of drug-related fatigue,[6]; N = 15,one
same,Patients who discontinued as a result of drug-related interstitial lung disease,[6]; N = 15,three
same,Patients who discontinued as a result of drug-related stomatitis,[6]; N = 15,one
same,Patients who discontinued due to drug-related AEs,[6]; N = 15,five
same,Patients who discontinued treatment as a result of AEs,[6]; N = 15,six
same,"Patients who developed serious AEs, number",[6]; [12],Four
same,"Patients who developed serious AEs, percentage",[6]; [12],26.7%
same,Patients who developed Grade 2 interstitial pneumonitis,[6]; all recovered after interruption and glucocorticoids,Three
same,Non-serious AEs considered Grade 3,[6]; fifteen patients,11
same,Non-serious AEs considered Grade 4,[6]; fifteen patients,2
same,Non-serious AEs deemed by the investigator as drug related,[6]; fifteen patients,111
same,Total number of non-serious AEs reported,[6]; fifteen patients,135
same,Grade 3/4 drug-related AEs,"[6]; human, in vivo","anemia, stomatitis, fatigue, thrombocytopenia, constipation, gamma glutamyltransferase increase, and proteinuria"
same,Most common drug-related adverse events (occurred in ≥40% of patients),"[6]; human, in vivo","stomatitis, proteinuria, leukopenia, hyperglycemia, and pyrexia"
same,"ALT increase, number of patients",[6]; [13],3
same,"ALT increase, percentage of patients",[6]; [13],20%
same,"Anemia, number of patients",[6]; [13],5
same,"Anemia, percentage of patients",[6]; [13],33.3%
same,"Blood alkaline phosphatase increased, number of patients",[6]; [13],4
same,"Blood alkaline phosphatase increased, percentage of patients",[6]; [13],26.7%
same,"Blood cholesterol increased, number of patients",[6]; [13],5
same,"Blood cholesterol increased, percentage of patients",[6]; [13],33.3%
same,"Fatigue, number of patients",[6]; [13],4
same,"Fatigue, percentage of patients",[6]; [13],26.7%
same,"Gamma-glutamyltransferase increased, number of patients",[6]; [13],6
same,"Gamma-glutamyltransferase increased, percentage of patients",[6]; [13],40%
same,"Hyperglycaemia, number of patients",[6]; [13],7
same,"Hyperglycaemia, percentage of patients",[6]; [13],46.7%
same,"Hypoalbuminaemia, number of patients",[6]; [13],5
same,"Hypoalbuminaemia, percentage of patients",[6]; [13],33.3%
same,"Interstitial lung disease, number of patients",[6]; [13],3
same,"Interstitial lung disease, percentage of patients",[6]; [13],20%
same,"Platelet count decrease, number of patients",[6]; [13],5
same,"Platelet count decrease, percentage of patients",[6]; [13],33.3%
same,"Proteinuria, number of patients",[6]; [13],11
same,"Proteinuria, percentage of patients",[6]; [13],73.3%
same,"Pyrexia, number of patients",[6]; [13],6
same,"Pyrexia, percentage of patients",[6]; [13],40%
same,"Stomatitis, number of patients",[6]; [13],12
same,"Stomatitis, percentage of patients",[6]; [13],80%
same,"White blood cell count decrease, number of patients",[6]; [13],8
same,"White blood cell count decrease, percentage of patients",[6]; [13],53.3%
same,Tolerability,"[6]; once a day oral dose of 40 mg, Chinese patients",generally well tolerated
same,"Changes from baseline over time in serum cholesterol, serum glucose, serum triglycerides","[6]; summary statistics, an elevation from baseline was observed",no clinically significant elevations
